Drawing on patent US9278950B2, “Bicyclic aromatic carboxamide compounds useful as Pim kinase inhibitors” (Incyte Corporation, priority 2013, dated 2016), this text covers IC50 for nine compounds.

Common to all, as to assay type: biochemical
In one test the target is T1, Pim-1 (Homo sapiens, UniProt P11309).
T1 construct: purchased Invitrogen PV3503
In words: Pim-1 kinase assay (Pim enzyme assays, Example A). The note with it: 1 mM ATP; read-out: Pim1 IC50.

The next test addresses T2, Pim-3 (Homo sapiens, UniProt Q86V86).
T2 construct: purchased Millipore 14-738
Description: Pim-3 kinase assay (Pim enzyme assays, Example A). The following applies: 1 mM ATP; read-out: Pim3 IC50.

For another test, the target named is T3, Pim2 (Homo sapiens, UniProt Q9P1W9).
T3 construct: purchased Invitrogen PV3649
T3 sequence (Q9P1W9 whole entry): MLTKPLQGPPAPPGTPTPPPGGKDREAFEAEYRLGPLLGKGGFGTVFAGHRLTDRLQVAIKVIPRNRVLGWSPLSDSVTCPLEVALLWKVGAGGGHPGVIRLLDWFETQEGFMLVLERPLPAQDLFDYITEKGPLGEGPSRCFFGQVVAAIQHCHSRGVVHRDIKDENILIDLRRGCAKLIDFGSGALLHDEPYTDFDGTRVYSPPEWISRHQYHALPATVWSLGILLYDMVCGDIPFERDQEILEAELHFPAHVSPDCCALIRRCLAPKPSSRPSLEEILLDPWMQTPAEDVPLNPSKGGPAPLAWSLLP
Description: Pim-2 kinase assay (Pim enzyme assays, Example A). The note with it: 1 mM ATP; read-out: Pim2 IC50. Summed up: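 TR-FRET assay with 1 nM enzyme, 0.05 μM fluorescein-CREBtide and 1 mM ATP in Tris pH 7.5 buffer with MgCl2, DTT, BSA and Tween-20, run 2 h at 25° C. Stopped with EDTA and Tb-labelled anti-CREB pSer133 antibody, then read after 30 min at room temperature.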

SMILES strings stand for the structures.

T1 sequence (P11309 whole entry): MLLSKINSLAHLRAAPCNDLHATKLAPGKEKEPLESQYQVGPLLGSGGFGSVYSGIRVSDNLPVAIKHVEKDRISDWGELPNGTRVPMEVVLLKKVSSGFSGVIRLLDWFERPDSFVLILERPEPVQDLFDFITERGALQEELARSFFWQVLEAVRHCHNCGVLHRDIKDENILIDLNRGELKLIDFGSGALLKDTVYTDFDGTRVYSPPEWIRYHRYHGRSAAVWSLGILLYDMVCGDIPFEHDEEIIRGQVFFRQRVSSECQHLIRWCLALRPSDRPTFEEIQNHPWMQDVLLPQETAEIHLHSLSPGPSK

Usually IC50 stands for the midpoint of a concentration-inhibition curve. Take `C[C@@H]1C[C@H](N)CN(c2ccncc2NC(=O)c2nc3cc(N4CCCCC4=O)ccc3cc2N)C1` [Example 45, 3-Amino-N-{4-[(3S,5R)-3-amino-5-methylpiperidin-1-yl]pyridin-3-yl}-7-(2-oxopiperidin-1-yl)quinoline-2-carboxamide]: the IC50 is ≤ 100 nM at Pim-1, ≤ 100 nM at Pim-3 and 100 to 1000 nM at Pim2.

As to `C[C@@H]1C[C@H](N)CN(c2ccncc2NC(=O)c2nc3cc(N4CCN(C)C(=O)C4)ccc3cc2N)C1` [Example 46, 3-Amino-N-{4-[(3S,5R)-3-amino-5-methylpiperidin-1-yl]pyridin-3-yl}-7-(4-methyl-3-oxopiperazin-1-yl)quinoline-2-carboxamide], the IC50 is ≤ 100 nM at Pim-1, ≤ 100 nM on Pim-3 and 100 to 1000 nM at Pim2.

On to `C[C@@H]1C[C@H](N)CN(c2ccncc2NC(=O)c2nc3cc(N4CCNC(=O)C4)ccc3cc2N)C1` [Example 47, 3-Amino-N-{4-[(3S,5R)-3-amino-5-methylpiperidin-1-yl]pyridin-3-yl}-7-(3-oxopiperazin-1-yl)quinoline-2-carboxamide], for which the IC50 is ≤ 100 nM at Pim-1, ≤ 100 nM on Pim-3 and 100 to 1000 nM at Pim2.

On to `C[C@H]1CN(c2ccncc2NC(=O)c2nc3cc(N4CCN(C)C(=O)C4)ccc3cc2N)C[C@@H](N)[C@@H]1O` [Example 48, 3-Amino-N-{4-[(3R,4R,5S)-3-amino-4-hydroxy-5-methylpiperidin-1-yl]pyridin-3-yl}-7-(4-methyl-3-oxopiperazin-1-yl)quinoline-2-carboxamide], for which the IC50 on Pim-1, at Pim-3 and on Pim2 was ≤ 100 nM each time.

Turning to `C[C@H]1CN(c2ccncc2NC(=O)c2nc3cc(N4CCCCC4=O)ccc3cc2N)C[C@@H](N)[C@@H]1O` [Example 49, 3-Amino-N-{4-[(3R,4R,5S)-3-amino-4-hydroxy-5-methylpiperidin-1-yl]pyridin-3-yl}-7-(2-oxopiperidin-1-yl)quinoline-2-carboxamide], the results for the IC50 at Pim-1, at Pim-3 and on Pim2 were ≤ 100 nM, ≤ 100 nM and 100 to 1000 nM, respectively.

In the case of `C[C@@H]1C[C@H](N)CN(c2ccncc2NC(=O)c2nc3cc(N4CCOCC4=O)ccc3cc2N)C1` [Example 50, 3-Amino-N-{4-[(3S,5R)-3-amino-5-methylpiperidin-1-yl]pyridin-3-yl}-7-(3-oxomorpholin-4-yl)quinoline-2-carboxamide], the concentration for half-maximal inhibition (IC50) was ≤ 100 nM at Pim-1, ≤ 100 nM on Pim-3 and 100 to 1000 nM on Pim2.

Turning to `C[C@H]1CN(c2ccncc2NC(=O)c2nc3cc(N4CCOCC4=O)ccc3cc2N)C[C@@H](N)[C@@H]1O` [Example 51, 3-Amino-N-{4-[(3R,4R,5S)-3-amino-4-hydroxy-5-methylpiperidin-1-yl]pyridin-3-yl}-7-(3-oxomorpholin-4-yl)quinoline-2-carboxamide], the results for the IC50 on Pim-1, at Pim-3 and at Pim2 were ≤ 100 nM, ≤ 100 nM and 1000 to 10000 nM, respectively.

For `C[C@H]1CN(c2ccncc2NC(=O)c2nc3cc(N4CCN(C)C(=O)C4)ccc3cc2N)C[C@@H](N)[C@H]1n1ccnn1` [Example 52, 3-Amino-N-{4-[(3R,4S,5S)-3-amino-5-methyl-4-(1H-1,2,3-triazol-1-yl)piperidin-1-yl]pyridin-3-yl}-7-(4-methyl-3-oxopiperazin-1-yl)quinoline-2-carboxamide], the IC50 is ≤ 100 nM at Pim-1, ≤ 100 nM at Pim-3 and > 2000 nM at Pim2.

Consider `C[C@H]1CN(c2ccncc2NC(=O)c2nc3cc(C4CCOCC4)ccc3cc2N)C[C@@H](N)[C@H]1n1ccnn1` [Example 53, 3-Amino-N-{4-[(3R,4S,5S)-3-amino-5-methyl-4-(1H-1,2,3-triazol-1-yl)piperidin-1-yl]pyridin-3-yl}-7-(tetrahydro-2H-pyran-4-yl)quinoline-2-carboxamide], for which the IC50 at Pim-1 is ≤ 100 nM; at Pim-3 it was ≤ 100 nM; at Pim2, 1000 to 10000 nM.
